What was measured:
[1] = target: affinity purified antisteroid; assay: Competitive inhibition of binding of [3H] triamcinolone to affinity purified antisteroid; parameters: species or system rabbit; details: for Kd: read-out: Competitive inhibition of binding of [3H] triamcinolone, Affinity purified (apparent Kd)
Experimental: Thirty to 40 ml of serum obtained in part (a) of this example were passed slowly (±3.5 ml/hr) through the AH-Sepharose 4B triamcinolone column prepared according to (b) above. After washing with PBS to remove all unbound protein, the antibody was eluted with 0.2 M glycine pH 2.2 or 2.8. The eluate was dialyzed against 2 liters, 0.01 M PBS buffer pH 7.4 and the buffer changed at least 4 times before concentrating by vacuum dialysis at 4° C.
the glucocorticoid receptor, unprocessed rabbit serum 540, affinity
purified antisteroid and antisteroid Fab fragments. Assays with the […]

[2] = target: antisteroid Fab fragments; assay: Competitive inhibition of binding of [3H] triamcinolone to antisteroid Fab fragments; details: read-out: Competitive inhibition of binding of [3H] triamcinolone, Rabbit serum 541 Fab fragments (apparent Kd)
Experimental: To the dialysate was added 0.1 M dithiothreitol (DTT) (15 microliters) EDTA (2 mg) and 0.2 mg mercuripapain (5 microliters) and the solution was incubated overnight at 37° C. It was then dialyzed against 4 l distilled H2 O for 3 hrs and then against 1 liter of PBS for 2 hrs and then applied to a Sephadex G100 column (1×5×90 cms) and eluted (±5 ml/hr) with 0.01 M PBS pH 7.4. One ml fractions were collected. Fractions 53-79 were combined and examined at 280 nm for protein content. Undigested IgG and Fc fragments were removed by passage through a protein A Sepharose column (5 ml bed volume); unbound Fab was eluted with 0.01 M PBS pH 7.4. The eluate was concentrated by vacuum dialysis.

[3] = target: anti-steroid (unprocessed rabbit serum 540); assay: Competitive inhibition of binding of [3H] triamcinolone to anti-steroid, unprocessed rabbit serum 540; details: for Kd: read-out: Competitive inhibition of binding of [3H] triamcinolone, Rabbit Serum 540 Unprocessed (apparent Kd)
Experimental: FIG. 4. […] See legend to Table 1 for the experimental procedure.
New Zealand white rabbits were immunized by multiple intradermal injections of a total of 1 ml of triamcinolone-BSA (2 mg/ml) in saline emulsified with an equal volume of complete Freunds adjuvant. Booster injections were given three weeks later and then at monthly intervals. Animals were bled bi-weekly from the ear vein and the sera stored at 4° C. until required.

[4] = target: T1, binding of 8G11-C6 to partially purified glucocorticoid receptor (Rattus norvegicus, UniProt P06536); assay: ELISA inhibition of binding of 8G11-C6 to partially purified glucocorticoid receptor; details: ELISA (FIG. 11)
T1 construct: the glucocorticoid receptor was partially purified from rat liver cytosol; from tissue; host or cells: liver cytosol of Sprague-Dawley rats, receptor partially purified by the cited method of Gametchu & Harrison
T1 sequence (P06536 1-795): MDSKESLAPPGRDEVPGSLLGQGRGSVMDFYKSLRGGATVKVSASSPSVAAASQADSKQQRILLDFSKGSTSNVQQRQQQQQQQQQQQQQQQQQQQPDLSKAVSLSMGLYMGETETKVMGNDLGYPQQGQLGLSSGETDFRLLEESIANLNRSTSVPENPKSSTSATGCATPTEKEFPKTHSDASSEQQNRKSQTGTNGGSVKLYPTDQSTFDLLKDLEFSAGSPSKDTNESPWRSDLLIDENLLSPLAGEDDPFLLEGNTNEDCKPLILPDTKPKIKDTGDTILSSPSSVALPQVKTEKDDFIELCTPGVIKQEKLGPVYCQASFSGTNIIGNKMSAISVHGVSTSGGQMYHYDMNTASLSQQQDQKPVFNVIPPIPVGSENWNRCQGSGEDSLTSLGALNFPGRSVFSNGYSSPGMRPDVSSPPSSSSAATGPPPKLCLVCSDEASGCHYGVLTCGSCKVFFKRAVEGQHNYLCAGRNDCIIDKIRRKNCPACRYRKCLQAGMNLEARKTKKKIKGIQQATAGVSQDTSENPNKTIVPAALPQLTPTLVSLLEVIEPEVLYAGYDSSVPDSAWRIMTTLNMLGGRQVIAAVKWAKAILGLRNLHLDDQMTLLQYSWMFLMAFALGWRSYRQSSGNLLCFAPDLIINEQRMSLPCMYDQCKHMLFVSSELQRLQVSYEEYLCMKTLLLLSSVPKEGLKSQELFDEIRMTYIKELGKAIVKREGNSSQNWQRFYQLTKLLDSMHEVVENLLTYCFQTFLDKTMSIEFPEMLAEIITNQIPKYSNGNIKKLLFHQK
Experimental: FIG. 11. […] 200 microliters containing 0.54 micrograms protein of a partially purified receptor preparation in 0.1M NaHC03 pH 9.3 was added to the wells of polystyrene plates. These were incubated for 2 hrs at 37° C. Washed 2×with PBS […] 0.02% tween. […] See methods for the methodology employed. The inhibitors used were triamcinolone acetonide ( ), rabbit serum albumin ( ), and triamcinolone - RSA ( ).

[5] = system: binding of 8G11-C6 to anti-steroid Fab fragments; assay: ELISA inhibition of binding of 8G11-C6 to anti-steroid Fab fragments; details: ELISA (FIGS. 7, 8, 9)
Experimental: Controls with no inhibitor were included.
FIG. 9. […] The method used was similar to that described in the exerimental procedure. […] 200λ of the incubation mixture was then added to microtiter wells previously coated with 10 ng anti-steroid Fab fragments and incubated for 2 hrs at 37° C.
The presence of anti-idiotypic antibodies in the hybridoma culture medium were assayed by a double antibody sandwich ELISA. […] After washing twice with 0.01 M phosphate buffer--0.14M NaCl, pH 7.4, containing 0.05% Tween-20 (PBS-Tween), the culture medium from the hybridomas was added and incubated at 37° C. for 2 hrs. The wells were washed three times with PBS-Tween and 200 microliters of 1:3,000 dilution in PBS-Tween of goat anti-mouse 1gM-1gG horseradish peroxidase (Tago) was added. After incubating 1 hr at 37°, the wells were washed three times with PBS-tween and 200 microliters substrate (7 mg o-phenylenediamine dichloride in 10 ml 0.1 M citrate-phosphate buffer, pH 4.8 containing 5 microliters of 30% H2 O2) was added. Depending on the intensity of the color, the reaction was stopped after 5-10 min by the addition of 50 microliters 8N H2 SO4 and the OD determined (Titretek) at 492 nm.

[6] = target: Fab fragments of affinity purified anti-steroid antibodies; assay: Scatchard plot of binding of labeled steroid to Fab fragments of affinity purified anti-steroid antibodies; parameters: species or system rabbit; details: curved plot with [3H]TA, linear plot with [3H]-dexamethasone; read-out: Kd for Fab fragments of the anti-steroid, from Scatchard plots
Experimental: FIG. 3. Scatchard plot of the binding of [^3 H] triamcinolone to Fab fragments of affinity purified anti-steroid antibodies. Fab fragments (0.227 micrograms) were incubated with increasing concentrations of [^3 H] triamcinolone (0.4-62.5nM) in the presence of 0.01M phosphate buffered saline pH 7.4 containing 0.1% gelatin in a total volume of 200 microliters. Total and non-specific binding (50 micromoles triamcinolone acetonide) were determined for each of the [^3 H] triamcinolone levels and all points were in duplicate. After incubating 1 hr at room temperature, add 1 ml cold 5% charcoal/dextran (diluted 1:40 in 0.01M PBS containing 0.1% gelatin) and let stand on ice for 10 min. Centrifuge down the charcoal/dextran, decant the supernatant into scintillation vials and determine the radioactivity.

glucocorticoid receptor = target: T2, glucocorticoid receptor (Rattus norvegicus, UniProt P06536)
T2 sequence (P06536 1-795): T1 sequence (P06536 1-795)
Experimental: Incubate in a total volume of 500 microliters, for 2 hrs at 4° C. 20 mM HEPES buffer containing 50 mM NaCl, 1 mM EDTA, 10% glycerol 0.1 mM DTT pH 7.6, 10nM [3H]TA and 200 microliters rat liver cytosol. Add 250 microliters 5% charcoal/dextran solution and after 10 min centrifuge and determine the radioactivity in 200 λaliquot.
Four to 6 days after 150-200 g Sprague-Dawley male rats were adrenalectomized, they were anesthesized with ether and the livers perfused in situ through the portal vein with 50 ml of cold saline. The livers were then removed, homogenized with a Teflon-glass homogenizer in 1.1 volume of 10 mM HEPES, containing 50 mM NaCl, 1 mM Na2 EDTA, 1 mM dithiothreitol (DTT) and 10% glycerol, pH 7.6, and centrifuged for 1 hr at 250,000 g at 4° C. The upper fatty layer was discarded. The supernatant was either frozen immediately in liquid-nitrogen and used for assays or labeled by incubating with 75 nM [^3 H]triamcinolone acetonide for 2 hrs at 4° C. Unbound steroid was removed with 5% dextran-coated charcoal. The [^3 H]TA labeled glucocorticoid receptor was partially purified by the method described by Gametchu & Harrison (9), the only modification being that the phosphocellulose was omitted from the first purification step.
glucocorticoid receptor included 100 ml of rat liver cytosol. 10^-8 M
[^3 H]TA and increasing concentrations of steroid in a total volume o
200 ml. […]

Compound	Kd [1]	Kd [2]	Kd [3]	effect on the binding of 8G11-C6 to anti-steroid Fab fragments [5]	further results
C[C@]12C[C@H](O)[C@H]3[C@@H](CCC4=CC(=O)CC[C@@]43C)[C@@H]1CC[C@@H]2C(=O)CO [Corticosterone]	100 µM	100 µM	630 µM	–	–
C[C@@H]1C[C@H]2[C@@H]3CCC4=CC(=O)C=C[C@]4(C)[C@@]3(F)[C@@H](O)C[C@]2(C)[C@@]1(O)C(=O)CO [Dexamethasone]	0.62 µM	0.63 µM	0.12 µM	–	–
C[C@]12CCC(=O)C[C@@H]1CC[C@@H]1[C@@H]2CC[C@]2(C)[C@@H](O)CC[C@@H]12 [Dihydrotestosterone]	–	–	–	–	Competitive inhibition of binding of [3H] triamcinolone, Rabbit Serum 540 Unprocessed (apparent Kd) [3]: had no effect
C[C@]12CCC(=O)C=C1CC[C@@H]1[C@@H]2[C@@H](O)C[C@@]2(C)[C@H]1CC[C@]2(O)C(=O)CO [Hydrocortisone]	100 µM	100 µM	5 µM	–	–
CC(=O)[C@H]1CC[C@H]2[C@@H]3CCC4=CC(=O)CC[C@]4(C)[C@H]3CC[C@]12C [Progesterone]	100 µM	100 µM	100 µM	–	–
C[C@]12CC[C@H]3[C@@H](CCC4=CC(=O)CC[C@@]43C)[C@@H]1CC[C@@H]2O [Testosterone]	–	–	–	Neither triamcinolone, nor other steroids such as testosterone and estradiol-17β had any effect	effect on the binding of 8G11-C6 to partially purified glucocorticoid receptor [4]: only a slight inhibitory effect; Competitive inhibition of binding of [3H] triamcinolone, Affinity purified (apparent Kd) [1]: not inhibited; Competitive inhibition of binding of [3H] triamcinolone, Rabbit Serum 540 Unprocessed (apparent Kd) [3]: not inhibited
[3H]C1C2=CC(=O)C=C[C@]2(C)[C@@]2(F)[C@@H](O)C[C@@]3(C)[C@@H](C[C@@H](C)[C@]3(O)C(=O)CO)[C@@H]2C1[3H] (stereo partly drawn) [[^3 H]-dexamethasone, 6,7[^3 H] dexamethasone]	–	–	–	–	Kd [6]: 0.15 µM
C[C@]12CC[C@@H]3c4ccc(O)cc4CC[C@H]3[C@@H]1CC[C@@H]2O [estradiol-17β]	–	–	–	Neither triamcinolone, nor other steroids such as testosterone and estradiol-17β had any effect	effect on the binding of 8G11-C6 to partially purified glucocorticoid receptor [4]: no effect
CC1(C)O[C@@H]2C[C@H]3[C@@H]4CCC5=CC(=O)C=C[C@]5(C)[C@@]4(F)[C@@H](O)C[C@]3(C)[C@]2(C(=O)CO)O1 [triamcinolone acetonide]	–	–	–	did not affect	–
rabbit serum albumin: carrier protein tested alone as inhibitor	–	–	–	did not affect	–
triamcinolone	0.015 µM	0.015 µM	0.0032 µM	Neither triamcinolone, nor other steroids such as testosterone and estradiol-17β had any effect	Kd (glucocorticoid receptor): 0.005 µM

From patent publication US4818684A, “Auto-anti-idiotypic monoclonal antibodies to steroid receptors and uses thereof” (The Trustees of Columbia University in the City of New York, priority 1985, dated 1989)
